The text below walks through data of patent US8343978B2, “Fast onset orodispersable tablets” (Adds Pharmaceuticals LLC, priority 2008, dated 2013).

“Also recorded” adds a separate entry of the source.

Data set [1] is described as follows: Cloud point (LCST) measurement by spectrophotometry, light transmission at 750 nm. It counts as physicochemical. The conditions noted are these: 2 wt % hydroxypropylcellulose; for Effect of modifier on the LCST of hydroxypropylcellulose (Klucel EF): 0.2M sodium citrate, 0.2M magnesium sulfate, 0.2M potassium phosphate monobasic, 0.02M calcium sulfate, 1M mannitol, 1M xylitol. The text has this: The critical solution temperature of a polymer can be measured by spectrophotometry, by differential scanning calorimetry, or by nuclear magnetic resonance spectroscopy. For example, the spectrophotometrical method can be used to measure the cloud point of an LCST polymer. “Cloud point” generally refers to the temperature where the polymer solution in an aqueous medium becomes cloudy, indicating initiation of precipitation or flocculation of the polymer. The spectrophotometical method, as described as follows, can be adopted to screen various combinations of LCST polymers and modifiers to determine whether a modifier is capable of reducing the LCST of a polymer to about 37° C. or lower.
An LCST polymer is dissolved in distilled water and, optionally, separate solutions of LCST modifiers at various concentrations. Each polymer or polymer/modifier test solution is placed in a separate container, such as a bottle or a beaker, and each container is placed in a water bath. The water bath is equipped with a temperature regulator, and the temperature of the bath is set at approximately 60° C. (the temperature of the bath can start at a high temperature or, alternatively, the temperature of the water bath can start low and be increased gradually at a rate of, e.g., 1° C./min). While in the water bath, each test solution is circulated through a 1-cm flowthrough quartz cuvette using a peristaltic pump (Masterflex) at a flow rate of 50 ml/min. The temperature of the test solution is monitored using a thermocouple, the lead of which is inserted into the test solution in the container. Alternatively, the lead of the thermocouple can be inserted into the cuvette through tubing connecting the container and the cuvette. The light transmission (T %) of each solution is measured spectrophotometrically with a UV spectrophotometer at a wavelength of 750 nm. Initially, spectrophotometric measurements are taken at 2-3° C. intervals. Near the cloud point of a particular polymer or polymer/modifier combination, spectrophotometric measurements are taken more frequently (e.g., at 1 ° C. intervals). The cloud point is ascertained as the temperature at which the light transmission is 90% of the transmission at room temperature.

The nature of data set [2]: Tablet disintegration time in deionized water at 37° C., disintegration tester. The data set is classed as physicochemical. The conditions noted are these: 500 mg tablets, 1.3 cm diameter; 300 ml DI water at 37° C., 200 rpm paddle; n=3. Here is the method: To compare the cohesive properties of the modifiers tested in Example 2, tablets containing 95 wt % of each potential LSCT modifier and 5 wt % of cross-linked sodium carboxylmethylcellulose (Croscarmellose sodium) were tested for their average disintegration time in aqueous medium using a disintegration tester (LIJ-2, Vanguard Pharmaceutical Machinery, Inc. USA). The potential LCST modifier and Croscarmellose sodium were dry-blended in a vial and 500 mg of each blend were compressed under 1 metric ton of compression pressure using a 1.3 cm diameter rounding tool. The resulting tablets were placed into 300 ml of deionized (DI) water (at 37° C., agitated using a 200 rpm paddle) and the disintegration times of the tablets (i.e., the time that it took for each tablet to completely dissolve) were measured. Disintegration times were measured for three tablets of each modifier and average disintegration rates and standard deviates were determined. […]
An orally disintegrating placebo tablet comprising hydroxypropylcellulose as the LCST polymer and calcium sulfate as the modifier was manufactured as follows. […] The mean disintegration time of the tablets (n=3) was 35 seconds, with standard deviation of 4 seconds, as measured in de-ionized water at 37° C. using a disintegration tester (LIJ-2, Vanguard Pharmaceutical Machinery, Inc. USA). […]

For `O=S(=O)([O-])[O-].[Ca+2]` [calcium sulfate], the “Effect of modifier on the LCST of hydroxypropylcellulose (Klucel EF)” value (shortened to “Effect of modifier”) in data set [1] was “significantly reduce the LCST; also recorded: capable of reducing the LCST of hydroxypropylcellulose”. For the same molecule, the “Effect of electrolyte modifier on the LCST of hydroxypropylcellulose, compared at equal concentration” value in data set [1] (electrolytes at 0.02M) was “most effective reducer; also recorded: strongest effect on reducing the LCST”. For the same molecule, the “Disintegration time of tablets of 95 wt % modifier and 5 wt % Croscarmellose sodium” value in data set [2] is reported as “one”. `OC[C@@H](O)[C@@H](O)[C@H](O)[C@H](O)CO` [mannitol]: in data set [1], the “Effect of modifier” value is given as “significantly reduce the LCST; also recorded: capable of reducing the LCST of hydroxypropylcellulose”.

For `O=C([O-])CC(O)(CC(=O)[O-])C(=O)[O-].[Na+].[Na+].[Na+]` [sodium citrate], the “Effect of modifier” value in data set [1] is “significantly reduce the LCST; also recorded: capable of reducing the LCST of hydroxypropylcellulose”. Take `O=P([O-])(O)O.[K+]` [potassium phosphate monobasic]: the “Effect of modifier” value is given as “capable of reducing the LCST of hydroxypropylcellulose” in data set [1] and “significantly reduce the LCST” in data set [1] (listed as potassium phosphate (monobasic)). In addition, the “Disintegration time of tablets of 95 wt % modifier and 5 wt % Croscarmellose sodium” value in data set [2] was “one”. On to `OC[C@@H](O)[C@H](O)[C@@H](O)CO` [xylitol], for which, in data set [1], the “Effect of modifier” value is given as “significantly reduce the LCST; also recorded: capable of reducing the LCST of hydroxypropylcellulose”. Turning to `O=S(=O)([O-])[O-].[Mg+2]` [magnesium sulfate], the “Effect of modifier” value in data set [1] was “significantly reduce the LCST; also recorded: capable of reducing the LCST of hydroxypropylcellulose”.
